These results are taken from ChEMBL document CHEMBL1201862, “PubChem BioAssay data set” (2004).

In assay [1] the target is T1, Peroxisome proliferator-activated receptor gamma (Homo sapiens, UniProt P37231).
T1 sequence (P37231 whole entry): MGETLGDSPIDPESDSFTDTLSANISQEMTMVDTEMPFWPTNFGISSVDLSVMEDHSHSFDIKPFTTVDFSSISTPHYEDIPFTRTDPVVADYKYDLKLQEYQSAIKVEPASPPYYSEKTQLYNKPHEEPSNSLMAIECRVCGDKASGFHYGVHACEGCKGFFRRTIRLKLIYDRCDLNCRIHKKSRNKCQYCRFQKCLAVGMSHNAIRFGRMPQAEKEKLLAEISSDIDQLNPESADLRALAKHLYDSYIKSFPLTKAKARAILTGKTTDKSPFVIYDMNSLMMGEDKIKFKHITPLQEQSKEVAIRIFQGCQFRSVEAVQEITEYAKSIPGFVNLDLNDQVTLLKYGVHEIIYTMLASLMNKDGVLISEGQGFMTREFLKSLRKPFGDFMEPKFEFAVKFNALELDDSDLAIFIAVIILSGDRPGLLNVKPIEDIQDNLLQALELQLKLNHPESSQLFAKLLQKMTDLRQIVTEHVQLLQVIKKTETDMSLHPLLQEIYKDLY
Nature of the assay: PPARg ligand-binding domain binders, dose response, PPARg partial agonist project, biochemical, fluorescence polarization, PolarScreen (AID 504453). For orientation: Polarisation of emitted light reports the rotation of a fluorescent probe.

For assay [2], the target named is G-protein coupled receptor 55 (Homo sapiens, UniProt Q9Y2T6). Nature of the assay: GPR55 antagonists blocking LPI-driven arrestin recruitment, primary screen, imaging, U2OS, beta-arrestin-GFP, LPI agonist (AID 2013).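 Note: antagonist potency measured as reduced agonist-driven arrestin aggregation.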 The format is functional. (Activated receptors often draw arrestin, which recruitment assays turn into a signal.)
Assay [3] addresses T1, Peroxisome proliferator-activated receptor gamma. In words: PPARg partial agonists, dose response, cell-based, luminescence, assay provider (AID 504447). The assay is classed as functional.
Assay [4] in a line: HIV-1 Env-mediated cell fusion inhibitors, dose response, CCR5-tropic Env (AID 2279). The assay is classed as functional.
For the next assay, the system named is Vero. Nature of the assay: Vero cell cytotoxicity, cytotoxicity control for flavivirus capping enzyme inhibitors (AID 588742). The format is functional. Particulars: Chlorocebus sabaeus.
Assay [5] concerns the target Peroxisome proliferator-activated receptor alpha (Homo sapiens, UniProt Q07869). In words: Late stage assay provider counterscreen for partial agonists of the peroxisome proliferator-activated receptor gamma (PPARg): Luminescence-based cell-based dose response assay for partial agonists of the peroxisome proliferator-activated receptor alpha (PPARA). [Related pubchem assays (depositor defined):AID1051, AID1300, AID1319, AID1679, AID1808, AID504446, AID504447, AID504452, AID504453, AID631]. The assay is classed as functional.

The target in assay [6] is T1, Peroxisome proliferator-activated receptor gamma. In words: PPARg ligand-binding domain binders, dose response, PPARg partial agonist project, biochemical, TR-FRET, LanthaScreen (AID 504446). A general note: TR-FRET usually uses a lanthanide donor and a delayed reading to cut background.
Assay [7] can be described thus: Luminescence Cell-Based Dose Retest to Confirm Inhibitors of Cancer Stem Cells. [Related pubchem assays (depositor defined):AID2717, AID2721]. Particulars: Homo sapiens. The format is functional.
The target in a further assay is Major prion protein (Homo sapiens, UniProt P04156). The format is functional, cell-based.
For assay [8], the target named is Peroxisome proliferator-activated receptor gamma/Nuclear receptor coactivator 2 (Homo sapiens, UniProt P37231). Nature of the assay: TR-FRET dose response biochemical High Throughput Screening assay for agonists of the steroid receptor coactivator 2 (SRC-2) recruitment by the peroxisome proliferator-activated receptor gamma (PPAR gamma): non-selective agonists. [Related pubchem assays: 1297, 1032 ]. The format is functional.

Assay [9] concerns the target Peroxisome proliferator-activated receptor gamma/Nuclear receptor coactivator 3 (Homo sapiens, UniProt P37231). Nature of the assay: TR-FRET dose response biochemical High Throughput Screening assay for agonists of the steroid receptor coactivator 3 (SRC-3) recruitment by the peroxisome proliferator-activated receptor gamma (PPAR gamma): non-selective agonists. [Related pubchem assays: 1301 (Confirmation screen.), 1048 (Primary screen.)]. The assay is classed as functional.

Assay [10] addresses Peroxisome proliferator-activated receptor gamma/Nuclear receptor coactivator 1 (Homo sapiens, UniProt P37231). Nature of the assay: TR-FRET dose response biochemical High Throughput Screening assay for agonists of the steroid receptor coactivator 1 (SRC-1) recruitment by the peroxisome proliferator-activated receptor gamma (PPAR gamma): non-selective agonists. [Related pubchem assays (depositor defined):AID1300, AID1808, AID504735, AID631]. The format is protein assay.

The target in assay [11] is Mitogen-activated protein kinase 10 (Homo sapiens, UniProt P53779). Nature of the assay: Dose response biochemical screening assay for inhibitors of c-Jun N-Terminal Kinase 3 (JNK3). [Related pubchem assays: 746 ].
For another assay, the target named is T2, fMet-Leu-Phe receptor (Homo sapiens, UniProt P21462).
T2 sequence (P21462 whole entry): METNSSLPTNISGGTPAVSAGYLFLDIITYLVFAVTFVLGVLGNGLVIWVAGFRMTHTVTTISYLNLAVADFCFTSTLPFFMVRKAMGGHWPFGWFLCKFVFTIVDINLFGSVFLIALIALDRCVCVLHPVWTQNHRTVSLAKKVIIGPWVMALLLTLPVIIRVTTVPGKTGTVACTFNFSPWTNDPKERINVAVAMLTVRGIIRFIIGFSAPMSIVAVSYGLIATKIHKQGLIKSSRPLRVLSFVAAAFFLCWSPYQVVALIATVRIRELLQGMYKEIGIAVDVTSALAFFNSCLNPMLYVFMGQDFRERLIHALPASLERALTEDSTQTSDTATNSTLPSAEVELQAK
In words: FPR ligands, dose response (AID 519). The assay is classed as functional.

Assay [12] is described as follows: Vero cell cytotoxicity, dose response, cytotoxicity control for Vif-APOBEC3G degradation inhibitor project, Vero cells (AID 1117358). Particulars: Human immunodeficiency virus 1, Vero. The assay is classed as functional.
Assay [13] deals with T3, Tyrosine-protein phosphatase non-receptor type 22 (Homo sapiens, UniProt Q9Y2R2).
T3 sequence (Q9Y2R2 whole entry): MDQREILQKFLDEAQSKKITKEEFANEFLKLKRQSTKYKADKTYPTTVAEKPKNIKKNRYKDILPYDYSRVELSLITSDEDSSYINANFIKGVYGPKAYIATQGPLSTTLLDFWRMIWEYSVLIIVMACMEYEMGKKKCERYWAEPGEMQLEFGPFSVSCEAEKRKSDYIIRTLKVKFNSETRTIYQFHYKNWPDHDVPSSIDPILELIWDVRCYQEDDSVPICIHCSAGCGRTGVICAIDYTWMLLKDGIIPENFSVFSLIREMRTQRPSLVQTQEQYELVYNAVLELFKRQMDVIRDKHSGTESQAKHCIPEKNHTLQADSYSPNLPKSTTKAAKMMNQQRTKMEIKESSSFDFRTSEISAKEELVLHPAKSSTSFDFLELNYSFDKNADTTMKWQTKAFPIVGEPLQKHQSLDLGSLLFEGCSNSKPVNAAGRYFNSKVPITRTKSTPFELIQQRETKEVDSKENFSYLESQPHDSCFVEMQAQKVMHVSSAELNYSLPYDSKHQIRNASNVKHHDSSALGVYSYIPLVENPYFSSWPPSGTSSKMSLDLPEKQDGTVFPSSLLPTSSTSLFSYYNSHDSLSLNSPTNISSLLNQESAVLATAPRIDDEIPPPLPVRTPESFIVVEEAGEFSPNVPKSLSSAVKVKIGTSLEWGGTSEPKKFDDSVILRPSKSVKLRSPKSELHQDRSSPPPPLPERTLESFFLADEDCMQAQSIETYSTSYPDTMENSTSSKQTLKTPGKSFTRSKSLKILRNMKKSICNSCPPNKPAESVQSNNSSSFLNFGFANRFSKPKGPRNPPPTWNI
The assay is classed as functional.

For assay [14], the target named is T3, Tyrosine-protein phosphatase non-receptor type 22. The format is functional. This is another data set of the same source.
Assay [15] concerns the target Tyrosine-protein phosphatase non-receptor type 7 (Homo sapiens, UniProt P35236). The assay is classed as functional.
Assay [16] deals with Kappa-type opioid receptor (Homo sapiens, UniProt P41145). In words: SAR analysis of small molecule agonists of the kappa opioid receptor via a luminescent beta-arrestin assay - Set 3. [Related pubchem assays (depositor defined):AID1777, AID1785, AID1786, AID1966, AID2133, AID2136, AID2284, AID2500]. The assay is classed as functional.
In assay [17] the target is T4, Sphingosine 1-phosphate receptor 4 (Homo sapiens, UniProt O95977).
T4 sequence (O95977 whole entry): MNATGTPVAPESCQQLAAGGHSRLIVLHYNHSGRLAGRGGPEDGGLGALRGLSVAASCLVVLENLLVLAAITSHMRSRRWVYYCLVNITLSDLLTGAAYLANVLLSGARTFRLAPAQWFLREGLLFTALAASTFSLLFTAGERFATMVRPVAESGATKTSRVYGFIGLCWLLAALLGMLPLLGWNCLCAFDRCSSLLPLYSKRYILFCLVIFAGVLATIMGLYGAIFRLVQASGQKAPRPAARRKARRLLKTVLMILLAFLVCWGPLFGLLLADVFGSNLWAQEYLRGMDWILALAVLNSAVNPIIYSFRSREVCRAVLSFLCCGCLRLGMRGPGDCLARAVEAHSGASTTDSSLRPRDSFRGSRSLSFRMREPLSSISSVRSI
In words: Fluorescence dose response cell-based high throughput screening assay for agonists of the Sphingosine 1-Phosphate Receptor 4 (S1P4). [Related pubchem assays: 1509 (Primary screen.), 1523 (Confirmation screen in triplicates.)]. The format is functional.

Assay [18] has as its target Sphingosine 1-phosphate receptor 1 (Homo sapiens, UniProt P21453). Nature of the assay: Fluorescence-based counterscreen assay for S1P4 agonists: Cell-based dose response high throughput screening assay to identify agonists of the Sphingosine 1-Phosphate Receptor 1 (S1P1). [Related pubchem assays (depositor defined):AID1509, AID1523, AID1801, AID463107, AID463118, AID463119, AID463122, AID463123, AID463129, AID463225, AID504400, AID504460]. The format is functional.

Calls of active or inactive are those of the source.
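Throughout, for AC50: cells exposed to compound for roughly 70 hours or longer before luminescence read.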

Take `COc1ccc(-c2nn(-c3ccccc3)cc2/C=C2/SC(=S)N(CCC(=O)O)C2=O)c(C)c1`: the IC50 in assay [1] was 0.152 µM (active); in assay [2], 0.665 µM (active); in [4] it was 47.4 µM (active); in [6] it was 0.194 µM (active). Besides, the EC50 in [3] was 0.283 µM (active); in [5], > 3 µM (inactive). Also, in the assay on Vero, the CC50 was > 40 µM (active). The AC50 in assay [7] was 9.19 µM (active).
`CC(Sc1ccc2ccccc2n1)C(=O)O` (configuration not stated): the IC50 on Major prion protein was 1.56 µM (active); in “cells”, > 138 µM (inactive); in assay [11], 4.87 µM (active). Moreover, the EC50 is > 79.4 µM (not active) in assay [8], > 79.4 µM (not active) in assay [9] and > 79.4 µM (inactive) in assay [10].
On to `O=C(O)CCCNc1cc(N2CCC3(CC2)OCCO3)c2noc3c2c1C(=O)c1ccccc1-3`, for which the Ki at fMet-Leu-Phe receptor was 34.1 µM (inactive). Moreover, the CC50 in [12] was > 40 µM (active). For the same compound, the results for the IC50 in [13], in [14] and in [15] were 61.9 µM (active), 68.9 µM (active) and 69.3 µM (active), respectively.
For the compound `FC(F)(F)c1cc(CSc2nnc(-c3ccccn3)n2Cc2ccccc2Cl)ccc1Cl`, in assay [16], the EC50 was 4.3 µM (active).
`Clc1ccc(/C=C\c2[nH]ccc3c4ccccc4nc2-3)cc1`: the EC50 in assay [17] is 4.41 µM (active); in assay [18], 2.18 µM (active).

Usually IC50 stands for the concentration that gives 50% inhibition. A word on the EC50: it is the concentration giving half of the maximal effect. Usually CC50 stands for the concentration giving 50% cytotoxicity. As a reminder, the AC50 is the midpoint of the concentration-response curve, whichever way the signal moves. Usually Ki stands for a dissociation constant, usually derived from enzyme kinetics or from competition with a known ligand.
